Key:
[1] = test system: LDL cholesterol in blood plasma; experiment: Evaluation of combined use of statin and CETP inhibitor: blood plasma LDL cholesterol after two weeks oral administration in guinea pigs; format: in vivo, guinea pigs (Slc: Hartley); conditions: for Amount of LDL cholesterol in blood plasma: male guinea pigs, average ± standard deviation; for Amount of LDL cholesterol in blood plasma / Plasma LDL cholesterol lowering ratio: oral, two weeks
Experimental: Male guinea pigs (six weeks old, Slc: Hartley, Japan SLC, Inc.) were used for the experiment. Blood was collected from the jugular vein, and the guinea pigs were grouped on the basis of the total plasma cholesterol level and body weight.
After completion of repeated administration, blood was collected under anesthesia with pentobarbital, and the amount of LDL cholesterol in blood plasma (mg/dl. Hereinafter, described as “amount of LDL cholesterol in blood plasma”) was measured using high performance liquid chromatography according to the method by Usui, et al. (Usui et al., Clin. Chem., 46, 63-72 (2000)).
The group configuration consisted of the following four items, and six guinea pigs were used for each group.
(2) Pitavastatin single administration group: Pitavastatin calcium pentahydrate was orally administered at a dose of 1 mg/kg of body weight.
The amount of LDL cholesterol in blood plasma was obtained as an average value ±standard deviation.
Furthermore, the proportions of lowering of LDL cholesterol in blood plasma in the various drug administration groups (“plasma LDL cholesterol lowering ratios”) were calculated by the expression described below, from the average values of the amounts of LDL cholesterol in blood plasma of the control group and the various drug administration groups.
Plasma LDL cholesterol lowering ratio (%)=[(Cc−Ct)/Cc]×100
wherein Cc represents the average value of the amount of LDL cholesterol in blood plasma in the control group; and Ct represents the average value of the amount of LDL cholesterol in blood plasma of each of the various drug administration groups.
Furthermore, the average values of the amounts of LDL cholesterol in blood plasma of each of the various drug administration groups in a case in which the average value of the amount of LDL cholesterol in blood plasma of the control group was designated as 1, were calculated as relative indices.
Furthermore, determination of a synergistic effect according to Bulge formula was implemented.

[2] = Thermal stability test (residual ratio by HPLC after storage in glass bottles); format: physicochemical; conditions: for Residual ratio (%) After storage at 80° C. for 72 hours / Residual ratio (%) After storage at 100° C. for 24 hours / Residual ratio (%) After storage at 120° C. for 16 hours: glass bottles, HPLC area percentage
Experimental: A test compound was introduced into glass bottles, and the bottles were stored for certain time periods under temperature conditions of 80° C., 100° C., or 120° C. Subsequently, the residual ratio (%) of the pyrimidine compound (1) in the test compound was measured. Regarding the residual ratio, the proportion of the pyrimidine compound (1) contained in the test compound was measured as the peak area percentage using high performance liquid chromatography. In regard to the measurement by high performance liquid chromatography, an ODS column was used as a column, and a mixture of two kinds, namely, a 0.1% aqueous solution of TFA and a 0.1% acetonitrile solution of TFA, was used as a solvent. The detection wavelength was 242 nm. The residual ratio was calculated by the following calculation expression from the area percentage of the pyrimidine compound (1) thus obtained. Residual ratio (%)=Area percentage of pyrimidine compound (1) after storage/area percentage of pyrimidine compound (1) before storage×100 As the test compound, the crystals (crystals of pyrimidine compound (1) hydrochloride) obtained in Reference Example 1-3, and the free form of the pyrimidine compound (1) were used.

[3] = Test Example 1-2, control group designated as 1, pitavastatin 1 mg/kg, anacetrapib 30 mg/kg
[4] = Test Example 1-2, pitavastatin 1 mg/kg, anacetrapib 30 mg/kg, control 18.5 ± 4.8
[5] = Test Example 1-2, vs control group, pitavastatin 1 mg/kg, anacetrapib 30 mg/kg
[6] = Test Example 1-1, [(Cc−Ct)/Cc]×100 vs control group, pitavastatin 1 mg/kg, pyrimidine compound (1) 30 mg/kg
[7] = Test Example 1-1, average plasma LDL cholesterol with control group designated as 1, pitavastatin 1 mg/kg, pyrimidine compound (1) 30 mg/kg
[8] = Test Example 1-1, pitavastatin calcium pentahydrate 1 mg/kg, pyrimidine compound (1) monohydrochloride 30 mg/kg, six per group, control 22.4 ± 2.9

SMILES | Relative index [1, 3] | Amount of LDL cholesterol in blood plasma [1, 4] [mg/dL] | Plasma LDL cholesterol lowering ratio [1, 5] [%] | Plasma LDL cholesterol lowering ratio [1, 6] [%] | Relative index [1, 7] | Amount of LDL cholesterol in blood plasma [1, 8] [mg/dL] | Residual ratio (%) After storage at 80° C. for 72 hours [2] [%] | Residual ratio (%) After storage at 100° C. for 24 hours [2] [%] | Residual ratio (%) After storage at 120° C. for 16 hours [2] [%] | Thermal stability ([2]; conclusion from Table 10)
COc1cc(F)c(C(C)C)cc1-c1ccc(C(F)(F)F)cc1CN1C(=O)O[C@H](c2cc(C(F)(F)F)cc(C(F)(F)F)c2)[C@@H]1C [Anacetrapib] | 0.98 | 18.2 ± 4.1 | 2 | – | – | – | – | – | – | –
CCN(C[C@H]1CC[C@H](CC(=O)O)CC1)c1ccc(C(F)(F)F)cc1CN(c1ncc(OCCS(C)(=O)=O)cn1)[C@@H](C)c1cc(C(F)(F)F)cc(C(F)(F)F)c1 [Pyrimidine compound (1), (S)-trans-{4-[({2-[({1-[3,5-bis(trifluoromethyl)phenyl]ethyl}{5-[2-(methylsulfonyl)ethoxy]pyrimidin-2-yl}amino)methyl]-4-(trifluoromethyl)phenyl}(ethyl)amino)methyl]cyclohexyl}acetic acid] | – | – | – | 16 | 0.84 | 18.9 ± 3.8 | – | – | – | –
CCN(C[C@H]1CC[C@H](CC(=O)O)CC1)c1ccc(C(F)(F)F)cc1CN(c1ncc(OCCS(C)(=O)=O)cn1)[C@@H](C)c1cc(C(F)(F)F)cc(C(F)(F)F)c1 [Free form of pyrimidine compound (1), (S)-trans-{4-[({2-[({1-[3,5-bis(trifluoromethyl)phenyl]ethyl}{5-[2-(methylsulfonyl)ethoxy]pyrimidin-2-yl}amino)methyl]-4-(trifluoromethyl)phenyl}(ethyl)amino)methyl]cyclohexyl}acetic acid] | – | – | – | – | – | – | 99.5 | 89.3 | 71.5 | –
CCN(C[C@H]1CC[C@H](CC(=O)O)CC1)c1ccc(C(F)(F)F)cc1CN(c1ncc(OCCS(C)(=O)=O)cn1)[C@@H](C)c1cc(C(F)(F)F)cc(C(F)(F)F)c1.Cl [(S)-trans-{4-[({2-[({1-[3,5-bis(trifluoromethyl)phenyl]ethyl}{5-[2-(methylsulfonyl)ethoxy]pyrimidin-2-yl}amino)methyl]-4-(trifluoromethyl)phenyl}(ethyl)amino)methyl]cyclohexyl}acetic acid hydrochloride] | – | – | – | – | – | – | 100.0 | 100.0 | 99.5 | excellent thermal stability
O=C(O)C[C@H](O)C[C@H](O)/C=C/c1c(C2CC2)nc2ccccc2c1-c1ccc(F)cc1 [Pitavastatin, (+)-monocalcium is[(3R,5S,6E)-7-[2-cyclopropyl-4-(4-fluorophenyl)-3-quinolyl]-3,5-dihydroxy-6-heptenoate}] | 0.62 | 11.5 ± 3.3 | 38 | 31 | 0.69 | 15.5 ± 3.9 | – | – | – | –

Source: patent US20170252338A1, “MEDICINE” (KOWA COMPANY, LTD., priority 2014, published 2017)
